# Experimental data reported in paper PMC13020021 (International Journal for Parasitology: Drugs and Drug …, 2026).
# Entries after “also recorded” stand apart in the source; their conditions may differ.
# Experiments:
# [1] = test system: natural TRPMPZQ variants; test: Ca2+ reporter assay, entire natural variation collection; type: cell-based, Schistosoma mansoni; conditions: mean ± sd
# [2] = test system: Fasciola spp. TRPMPZQ; conditions: Fasciola spp. TRPMPZQ ref Park et al., 2021; cited from earlier work
# [3] = test system: TRPMPZQ of pseudophyllidean cestodes; conditions: binding pocket variation of pseudophyllidean cestodes ref Sprague et al., 2025; cited from earlier work
structure (smiles),measurement,setting,value
"O=C(C1CCCCC1)N1CC(=O)N2CCc3ccccc3C2C1 (racemic) [(±)-PZQ, praziquantel]",average RA of the entire natural variation collection,[1],1.2 ± 0.55
same,sensitivity of TRPMPZQ to PZQ,[2],insensitivity; also recorded: refractory
same,sensitivity to PZQ,[3],micromolar range
